This data set can be described thus: In vivo safety evaluation: violacein content remaining in body after feeding (LC/MS). The following applies: chicken (broiler), cecum luminal intestinal contents, oral, 50 ppm in feed; broilers fed feed comprising 50 ppm violacein for 7 days; read-out: Violacein content (mg/kg), Cecum luminal intestinal contents. How it is done:
The safety evaluation of violacein was conducted in a breeding facility under the condition described in Example 1. At 7 days of age, broilers were fed a feed comprising 50 ppm violacein for 7 days, and an autopsy was conducted at 14 days of age, and the feed, appendix luminal intestinal contents, blood, spleen, liver and kidney were collected. For the feed used in formulation with the violacein, Daehanfeed Al-Choi product was used.
Each sample of the collected tissue was tested for the content of violacein through the HPLC method. For feed pretreatment, 1 g of each treatment group was weighed and diluted by adding 10 ? of MTBE solution, and then sonication was progressed for 1 hour, and filtration was performed using a […] syringe filter. Then, after evaporating the filtered sample for 1 hour, 1 ? , of 100% methanol was added. In addition, sonication was conducted for 1 minute, and it not dissolved, the supernatant was filtered once more using a […] syringe filter, and then placed in a vial for analysis. […] Then, the samples in which pretreatment was completed were analyzed using a set LC/MS instrument to measure the amount of violacein remaining in a body after feeding, and the result was shown in Table 13 below. In Table 13, ND (not detected) means not detected.

Consider `O=C1N=c2ccccc2=C1c1cc(-c2c[nH]c3ccc(O)cc23)[nH]c1O` [Violacein, 3-(2-(5-Hydroxyindol-3-yl)-5-oxo-2-pyrrolin-4-ylidene)-2-indolinone], for which the concentration at 7 days of feeding is 2100 ng/g.
